One molecule from patent US20100286174A1, “INHIBITING GSNOR” (Duke University, priority 2009, published 2010) can be followed below.

The test system of this assay is diabetic nephropathy. Briefly: Treatment of patient with diabetic nephropathy (Working Example IV). The assay is classed as in vivo, human. The note with it: person, creatinine of 3 at start; final concentration 6 micromolar; follow up 2 months later. An excerpt:
A person with diabetic nephropathy and creatinine of 3 is started on compound 6 at a final concentration of 6 micromolar and at follow up 2 months later, the creatinine is 2.

`CC(=O)CCc1ccc(-c2ccccc2)n1-c1ccc(C(C)=O)cc1` [compound 6] gave a creatinine of 2.
